Experimental data as given in patent publication US7416848B2, “DNA encoding SNORF25 receptor” (H. Lundbeck A/S, priority 1999, dated 2008).

Legend:
Type in all cases: cell-based
SNORF25 receptor [1] = target: T1, SNORF25 receptor (Rattus norvegicus, UniProt Q7TQN8); test: IP release in SNORF25-transfected CHO cells
T1 construct: the entire coding region was amplified from Rin14b cell line cDNA and rat genomic DNA; expressed in transfected cells; host or cells: CHO cells, transient (electroporation)
T1 sequence (Q7TQN8 with tags, fused parts or gaps limits assumed): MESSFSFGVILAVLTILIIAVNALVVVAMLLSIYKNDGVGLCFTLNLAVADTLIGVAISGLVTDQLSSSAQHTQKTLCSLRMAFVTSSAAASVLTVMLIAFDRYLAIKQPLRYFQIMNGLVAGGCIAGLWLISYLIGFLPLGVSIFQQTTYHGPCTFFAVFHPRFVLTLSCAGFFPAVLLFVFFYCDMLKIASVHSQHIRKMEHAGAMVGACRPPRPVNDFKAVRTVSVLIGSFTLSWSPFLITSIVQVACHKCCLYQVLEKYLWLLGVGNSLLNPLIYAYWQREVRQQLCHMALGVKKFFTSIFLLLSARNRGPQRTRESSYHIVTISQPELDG
Experimental: In a 96 well microplate format assay, cells are plated at a density of 70,000 cells per well and allowed to incubate for 24 hours. The cells are then labeled with 0.5 μCi [^3H]-myo-inositol overnight at 37° C., 5% CO2. Immediately before the assay, the medium is removed and replaced with 90 μL of PBS containing 10 mM LiCl. The plates are then incubated for 15 min at 37° C., 5% CO2. Following the incubation, the cells are challenged with agonist (10 μl/well; 10× concentration) for 30 min at 37° C., 5% CO2. The challenge is terminated by the addition of 100 μL of 50% v/v trichloroacetic acid, followed by incubation at 4° C. for greater than 30 minutes. Total IPs are isolated from the lysate by ion exchange chromatography. Briefly, the lysed contents of the wells are transferred to a Multiscreen HV filter plate (Millipore) containing Dowex AG1-X8 (200–400 mesh, formate form). The filter plates are prepared adding 100 μL of Dowex AG1-X8 suspension (50% v/v, water: resin) to each well. The filter plates are placed on a vacuum manifold to wash or elute the resin bed. Each well is first washed 2 times with 200 μl of 5 mM myo-inositol. Total [^3H]inositol phosphates are eluted with 75 μl of 1.2M ammonium formate/0.1M formic acid solution into 96-well plates. 200 μL of scintillation cocktail is added to each well, and the radioactivity is determined by liquid scintillation counting. […]

SNORF25 receptor [2] = target: T2, SNORF25 receptor (UniProt Q7TQN8); test: cAMP release in Cos-7 cells transiently transfected with SNORF25; details: SNORF25 transiently transfected Cos-7 cells (FIG. 8)
T2 construct: Emax of cAMP response
T2 sequence (Q7TQN8 1-468): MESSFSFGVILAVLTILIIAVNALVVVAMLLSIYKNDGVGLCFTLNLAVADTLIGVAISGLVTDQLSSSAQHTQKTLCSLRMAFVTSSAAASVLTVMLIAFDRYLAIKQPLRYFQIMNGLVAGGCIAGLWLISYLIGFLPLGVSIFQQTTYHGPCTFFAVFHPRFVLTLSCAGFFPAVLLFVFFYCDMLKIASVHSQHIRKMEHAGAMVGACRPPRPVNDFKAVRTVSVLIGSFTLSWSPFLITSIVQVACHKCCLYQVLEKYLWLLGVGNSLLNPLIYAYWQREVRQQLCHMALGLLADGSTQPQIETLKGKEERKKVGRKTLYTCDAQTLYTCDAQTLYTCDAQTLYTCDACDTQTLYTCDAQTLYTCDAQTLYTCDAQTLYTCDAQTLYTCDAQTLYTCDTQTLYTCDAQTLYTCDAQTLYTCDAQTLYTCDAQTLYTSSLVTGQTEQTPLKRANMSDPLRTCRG
Experimental: COS-7 cells are grown on 150 mm plates in DMEM with supplements (Dulbecco's Modified Eagle Medium with 10% bovine calf serum, 4 mM glutamine, 100 units/ml penicillin/100 μg/ml streptomycin) at 37° C., 5% CO2. Stock plates of COS-7 cells are trypsinized and split 1:6 every 3–4 days.
(§1) A typical protocol for the electroporation method as applied to Cos-7 cells is described as follows. Cells to be used for transfection are split 24 hours prior to the transfection to provide flasks which are subconfluent at the time of transfection. The cells are harvested by trypsinization resuspended in their growth media and counted. 5×10^6 cells are suspended in 300 μl of DMEM and placed into an electroporation cuvette. 8 μg of receptor DNA plus 8 μg of any additional DNA needed (e.g. G protein expression vector, reporter construct, antibiotic resistance marker, mock vector, etc.) is added to the cell suspension, the cuvette is placed into a BioRad Gene Pulser and subjected to an electrical pulse (Gene Pulser settings: 0.25 kV voltage, 950 μF capacitance). […]
(§2) The receptor-mediated stimulation or inhibition of cyclic AMP (cAMP) formation may be assayed in cells expressing the receptors. […] The plates are stored at 4° C. for 15 min, and the cAMP content in the stopping solution is measured by radioimmunoassay. Radioactivity may be quantified using a gamma counter equipped with data reduction software. […]

dopamine D1 receptor = target: T3, dopamine D1 receptor (Homo sapiens, UniProt P21728); test: cAMP in Cos-7 cells transfected with dopamine D1 receptor; details: 10 μM, dopamine D1 (FIG. 7)
T3 construct: expressed in transfected cells; host or cells: Cos-7 cells
Experimental: as §1, with “capacitance). Following the pulse, 800 μl of complete DMEM is added to each cuvette and the suspension transferred to a sterile tube. Complete medium is added to each tube to bring the final cell concentration to 1×10^5 cells/100 μl.” for “capacitance).”
as §2

dopamine D5 receptor = target: T4, dopamine D5 receptor (Homo sapiens, UniProt P21918); test: cAMP in Cos-7 cells transfected with dopamine D5 receptor; details: 10 μM, dopamine D5 (FIG. 7)
T4 construct: expressed in transfected cells; host or cells: Cos-7 cells
Experimental: as §1, with “capacitance). Following the pulse, 800 μl of complete DMEM is added to each cuvette and the suspension transferred to a sterile tube. Complete medium is added to each tube to bring the final cell concentration to 1×10^5 cells/100 μl.” for “capacitance).”
as §2

serotonin 5-HT6 receptor = target: T5, serotonin 5-HT6 receptor (Homo sapiens, UniProt P50406); test: cAMP in Cos-7 cells transfected with serotonin 5-HT6 receptor; details: 10 μM, serotonin 5-HT6 (FIG. 7)
T5 construct: expressed in transfected cells; host or cells: Cos-7 cells
Experimental: as §1, with “capacitance). Following the pulse, 800 μl of complete DMEM is added to each cuvette and the suspension transferred to a sterile tube. Complete medium is added to each tube to bring the final cell concentration to 1×10^5 cells/100 μl.” for “capacitance).”
as §2

T3 sequence (P21728 whole entry): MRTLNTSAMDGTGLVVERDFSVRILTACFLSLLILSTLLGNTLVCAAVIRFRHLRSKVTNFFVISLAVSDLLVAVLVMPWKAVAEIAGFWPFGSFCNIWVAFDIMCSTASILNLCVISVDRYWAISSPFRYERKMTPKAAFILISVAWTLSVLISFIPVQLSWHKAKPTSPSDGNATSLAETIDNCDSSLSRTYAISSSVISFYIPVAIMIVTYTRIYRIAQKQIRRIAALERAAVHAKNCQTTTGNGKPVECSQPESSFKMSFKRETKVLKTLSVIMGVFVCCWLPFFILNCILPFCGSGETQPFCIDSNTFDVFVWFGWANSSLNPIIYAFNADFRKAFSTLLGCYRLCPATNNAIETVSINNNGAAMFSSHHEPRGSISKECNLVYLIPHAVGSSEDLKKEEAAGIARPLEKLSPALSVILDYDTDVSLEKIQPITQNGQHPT
T4 sequence (P21918 whole entry): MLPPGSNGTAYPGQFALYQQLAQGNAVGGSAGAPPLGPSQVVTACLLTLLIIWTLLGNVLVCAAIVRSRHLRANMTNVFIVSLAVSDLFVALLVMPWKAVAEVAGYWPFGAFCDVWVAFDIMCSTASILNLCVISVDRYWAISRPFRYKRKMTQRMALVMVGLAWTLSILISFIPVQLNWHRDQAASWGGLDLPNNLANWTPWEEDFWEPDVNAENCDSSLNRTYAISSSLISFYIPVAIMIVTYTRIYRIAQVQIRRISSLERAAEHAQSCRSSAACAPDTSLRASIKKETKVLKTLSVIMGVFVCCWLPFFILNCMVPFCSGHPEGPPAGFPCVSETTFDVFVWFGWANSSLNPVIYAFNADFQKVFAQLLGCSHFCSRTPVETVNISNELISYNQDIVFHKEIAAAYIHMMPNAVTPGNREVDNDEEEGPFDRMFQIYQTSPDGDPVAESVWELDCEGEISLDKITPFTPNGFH
T5 sequence (P50406 whole entry): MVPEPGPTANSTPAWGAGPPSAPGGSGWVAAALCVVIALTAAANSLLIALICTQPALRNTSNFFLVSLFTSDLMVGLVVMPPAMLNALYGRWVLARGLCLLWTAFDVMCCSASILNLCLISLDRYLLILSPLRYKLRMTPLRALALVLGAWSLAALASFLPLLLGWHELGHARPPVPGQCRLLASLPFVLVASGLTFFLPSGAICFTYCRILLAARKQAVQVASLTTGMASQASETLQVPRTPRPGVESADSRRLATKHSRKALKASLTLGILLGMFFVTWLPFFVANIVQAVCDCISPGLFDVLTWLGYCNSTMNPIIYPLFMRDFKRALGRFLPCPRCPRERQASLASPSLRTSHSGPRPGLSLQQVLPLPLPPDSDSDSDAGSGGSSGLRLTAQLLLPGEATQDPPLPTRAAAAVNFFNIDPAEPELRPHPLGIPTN

IP release (SNORF25 receptor [1]): not IP release
Emax of cAMP response (SNORF25 receptor [2]): 200–300%
cAMP response (dopamine D1 receptor): no response
cAMP response (dopamine D5 receptor): no response
cAMP response (serotonin 5-HT6 receptor): no response
SMILES: CC1=C(/C=C/C(C)=C/C=C/C(C)=C/C(=O)O)C(C)(C)CCC1 [ATRA, all-trans-retinoic acid]
